The values that follow come from ChEMBL document CHEMBL5465560, “Selectivity Literature for EUbOPEN Chemogenomic Library” (2024).

Assay [1] addresses Protein arginine N-methyltransferase 8 (Homo sapiens, UniProt Q9NR22). The assay can be described thus: Selectivity interaction (Scintillation proximity assays) EUB0000255b PRMT8.
In assay [2] the target is T1, Mitogen-activated protein kinase 15 (Homo sapiens) (UniProt Q8TD08).
T1 sequence (whole entry): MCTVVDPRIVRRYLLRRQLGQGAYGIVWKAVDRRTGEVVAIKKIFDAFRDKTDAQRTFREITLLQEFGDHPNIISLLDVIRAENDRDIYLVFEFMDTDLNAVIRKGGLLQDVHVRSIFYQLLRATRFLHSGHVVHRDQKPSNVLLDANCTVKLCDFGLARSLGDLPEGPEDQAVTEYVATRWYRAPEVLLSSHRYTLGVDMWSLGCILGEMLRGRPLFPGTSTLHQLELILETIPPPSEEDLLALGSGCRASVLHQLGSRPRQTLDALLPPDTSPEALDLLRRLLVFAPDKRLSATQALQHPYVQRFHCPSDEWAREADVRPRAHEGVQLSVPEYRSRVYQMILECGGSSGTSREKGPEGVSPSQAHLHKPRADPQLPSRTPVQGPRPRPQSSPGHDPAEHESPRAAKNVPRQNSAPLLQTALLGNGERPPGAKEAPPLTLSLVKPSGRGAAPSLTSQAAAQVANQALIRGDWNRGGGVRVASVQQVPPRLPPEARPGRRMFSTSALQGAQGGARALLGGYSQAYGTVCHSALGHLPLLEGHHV
Kind of assay: Selectivity interaction (KinomeScan (DiscoverX)) EUB0000607a MAPK15. To be noted: at 10 µM.

Assay [3] has as its target Calcium/calmodulin-dependent protein kinase type 1 (Homo sapiens) (UniProt Q14012). The assay can be described thus: Selectivity interaction (ActivX KiNativ screen (kinase selectivity in THP-1 cell lysates)) EUB0000639a CAMK1. To be noted: lysate, at 0.01 µM. It is filed as subcellular.
The target in assay [4] is T2, Interleukin-1 receptor-associated kinase 3 (Homo sapiens) (UniProt Q9Y616).
T2 sequence (whole entry): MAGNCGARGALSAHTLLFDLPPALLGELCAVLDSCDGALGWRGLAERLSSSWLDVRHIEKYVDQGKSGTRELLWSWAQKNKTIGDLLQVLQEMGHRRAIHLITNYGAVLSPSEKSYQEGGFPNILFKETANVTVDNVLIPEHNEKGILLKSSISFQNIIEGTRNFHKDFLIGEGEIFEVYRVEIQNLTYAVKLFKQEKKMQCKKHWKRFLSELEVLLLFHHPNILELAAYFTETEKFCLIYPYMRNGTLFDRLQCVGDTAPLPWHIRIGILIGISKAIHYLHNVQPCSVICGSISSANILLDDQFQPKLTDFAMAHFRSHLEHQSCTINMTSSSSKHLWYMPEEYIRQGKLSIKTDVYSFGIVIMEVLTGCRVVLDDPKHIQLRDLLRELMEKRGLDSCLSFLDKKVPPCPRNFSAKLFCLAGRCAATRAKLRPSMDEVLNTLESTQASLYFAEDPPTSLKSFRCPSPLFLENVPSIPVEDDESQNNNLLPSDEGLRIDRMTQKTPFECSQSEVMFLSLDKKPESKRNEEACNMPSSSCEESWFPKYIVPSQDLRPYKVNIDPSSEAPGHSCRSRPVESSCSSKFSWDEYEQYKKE
The assay can be described thus: Selectivity interaction (ActivX KiNativ screen (kinase selectivity in THP-1 cell lysates)) EUB0000639a IRAK3. The format is subcellular. To be noted: lysate, at 0.01 µM.

The target in assay [5] is Mitogen-activated protein kinase 14 (Homo sapiens, UniProt Q16539). The assay can be described thus: Selectivity interaction (ActivX KiNativ screen (kinase selectivity in THP-1 cell lysates)) EUB0000639a MAPK14. The format is subcellular. To be noted: lysate, at 1 µM.
Sequence of Mitogen-activated protein kinase 14 (Q16539 whole entry): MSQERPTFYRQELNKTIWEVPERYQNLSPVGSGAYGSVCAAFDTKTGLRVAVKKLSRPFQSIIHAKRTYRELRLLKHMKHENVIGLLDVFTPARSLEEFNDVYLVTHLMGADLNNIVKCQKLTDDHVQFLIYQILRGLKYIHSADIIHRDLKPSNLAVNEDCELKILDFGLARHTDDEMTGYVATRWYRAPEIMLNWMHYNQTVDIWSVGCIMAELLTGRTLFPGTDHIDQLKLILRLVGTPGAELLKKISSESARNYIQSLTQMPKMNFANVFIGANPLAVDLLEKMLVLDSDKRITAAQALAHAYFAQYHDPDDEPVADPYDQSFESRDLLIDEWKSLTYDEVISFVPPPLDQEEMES
Assay [6] has as its target Homeodomain-interacting protein kinase 2 (Homo sapiens, UniProt Q9H2X6). The assay can be described thus: Selectivity interaction (KinomeScan (DiscoverX)) EUB0000618a HIPK2. To be noted: at 10 µM.
For assay [7], the target named is T3, Serine/threonine-protein kinase tousled-like 1 (Homo sapiens) (UniProt Q9UKI8).
T3 sequence (whole entry): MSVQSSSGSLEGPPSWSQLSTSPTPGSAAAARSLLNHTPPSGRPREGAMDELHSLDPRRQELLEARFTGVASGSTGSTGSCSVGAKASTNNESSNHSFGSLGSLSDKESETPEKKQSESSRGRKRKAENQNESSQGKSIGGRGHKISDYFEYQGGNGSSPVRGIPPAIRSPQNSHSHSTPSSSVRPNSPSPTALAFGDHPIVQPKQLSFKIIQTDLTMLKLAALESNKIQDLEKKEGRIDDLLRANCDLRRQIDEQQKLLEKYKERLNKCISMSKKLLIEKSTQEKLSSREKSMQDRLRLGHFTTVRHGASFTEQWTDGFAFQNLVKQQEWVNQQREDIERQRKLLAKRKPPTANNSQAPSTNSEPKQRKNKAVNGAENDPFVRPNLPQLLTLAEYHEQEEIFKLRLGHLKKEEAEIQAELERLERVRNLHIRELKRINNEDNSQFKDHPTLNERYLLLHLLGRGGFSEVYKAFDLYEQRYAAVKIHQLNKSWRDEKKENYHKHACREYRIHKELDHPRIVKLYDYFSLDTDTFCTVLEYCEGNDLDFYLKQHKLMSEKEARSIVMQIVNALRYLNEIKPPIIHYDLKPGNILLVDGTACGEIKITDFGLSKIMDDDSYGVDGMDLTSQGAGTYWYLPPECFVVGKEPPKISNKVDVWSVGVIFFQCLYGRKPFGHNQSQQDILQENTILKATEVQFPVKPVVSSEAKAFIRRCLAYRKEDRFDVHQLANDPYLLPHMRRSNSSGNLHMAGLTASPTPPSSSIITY
Kind of assay: Selectivity interaction (KinomeScan (DiscoverX)) EUB0000618a TLK1. The following applies: at 10 µM.

Assay [8] deals with T4, Serine/threonine-protein kinase ULK3 (Homo sapiens) (UniProt Q6PHR2).
T4 sequence (whole entry): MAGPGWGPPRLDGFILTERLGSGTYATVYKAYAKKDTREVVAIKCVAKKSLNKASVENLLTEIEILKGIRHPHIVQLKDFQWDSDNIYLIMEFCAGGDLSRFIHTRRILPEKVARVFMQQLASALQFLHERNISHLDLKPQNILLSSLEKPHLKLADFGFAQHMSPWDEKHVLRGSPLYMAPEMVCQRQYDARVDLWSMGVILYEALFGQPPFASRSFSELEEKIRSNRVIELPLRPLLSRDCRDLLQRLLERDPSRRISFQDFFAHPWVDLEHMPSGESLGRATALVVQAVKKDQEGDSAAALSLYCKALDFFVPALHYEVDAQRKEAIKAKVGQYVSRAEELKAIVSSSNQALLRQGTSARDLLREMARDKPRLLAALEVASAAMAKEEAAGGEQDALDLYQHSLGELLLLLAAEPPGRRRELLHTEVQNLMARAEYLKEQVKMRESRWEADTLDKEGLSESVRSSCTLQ
Kind of assay: Selectivity interaction (KinomeScan (DiscoverX)) EUB0000618a ULK3. To be noted: at 10 µM.

In assay [9] the target is Cyclin-dependent kinase 9 (Homo sapiens, UniProt P50750). Kind of assay: Selectivity interaction (KinomeScan (DiscoverX)) EUB0000092b CDK9. To be noted: at 10 µM.
Sequence of Cyclin-dependent kinase 9 (P50750 whole entry): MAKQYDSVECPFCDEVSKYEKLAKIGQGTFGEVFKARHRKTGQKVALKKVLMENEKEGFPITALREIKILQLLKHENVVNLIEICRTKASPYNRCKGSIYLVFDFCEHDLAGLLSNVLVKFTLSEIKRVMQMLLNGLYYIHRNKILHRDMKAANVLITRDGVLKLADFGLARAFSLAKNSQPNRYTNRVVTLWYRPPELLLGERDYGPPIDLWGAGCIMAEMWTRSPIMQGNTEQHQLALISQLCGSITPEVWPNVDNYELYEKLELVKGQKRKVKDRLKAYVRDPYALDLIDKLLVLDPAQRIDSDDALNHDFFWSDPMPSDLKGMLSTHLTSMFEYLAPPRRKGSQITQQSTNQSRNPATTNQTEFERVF

Sequence of Protein arginine N-methyltransferase 8 (Q9NR22 whole entry): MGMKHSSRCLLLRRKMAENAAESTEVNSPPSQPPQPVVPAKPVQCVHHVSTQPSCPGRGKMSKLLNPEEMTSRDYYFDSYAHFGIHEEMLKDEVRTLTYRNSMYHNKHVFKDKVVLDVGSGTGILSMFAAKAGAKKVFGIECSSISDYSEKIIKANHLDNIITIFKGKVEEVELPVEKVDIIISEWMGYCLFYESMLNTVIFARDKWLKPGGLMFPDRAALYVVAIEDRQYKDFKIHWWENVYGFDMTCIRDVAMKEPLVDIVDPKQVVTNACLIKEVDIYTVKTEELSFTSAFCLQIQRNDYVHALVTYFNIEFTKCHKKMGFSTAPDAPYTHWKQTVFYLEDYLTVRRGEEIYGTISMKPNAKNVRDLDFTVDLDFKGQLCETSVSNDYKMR
Sequence of Homeodomain-interacting protein kinase 2 (Q9H2X6 whole entry, looked up): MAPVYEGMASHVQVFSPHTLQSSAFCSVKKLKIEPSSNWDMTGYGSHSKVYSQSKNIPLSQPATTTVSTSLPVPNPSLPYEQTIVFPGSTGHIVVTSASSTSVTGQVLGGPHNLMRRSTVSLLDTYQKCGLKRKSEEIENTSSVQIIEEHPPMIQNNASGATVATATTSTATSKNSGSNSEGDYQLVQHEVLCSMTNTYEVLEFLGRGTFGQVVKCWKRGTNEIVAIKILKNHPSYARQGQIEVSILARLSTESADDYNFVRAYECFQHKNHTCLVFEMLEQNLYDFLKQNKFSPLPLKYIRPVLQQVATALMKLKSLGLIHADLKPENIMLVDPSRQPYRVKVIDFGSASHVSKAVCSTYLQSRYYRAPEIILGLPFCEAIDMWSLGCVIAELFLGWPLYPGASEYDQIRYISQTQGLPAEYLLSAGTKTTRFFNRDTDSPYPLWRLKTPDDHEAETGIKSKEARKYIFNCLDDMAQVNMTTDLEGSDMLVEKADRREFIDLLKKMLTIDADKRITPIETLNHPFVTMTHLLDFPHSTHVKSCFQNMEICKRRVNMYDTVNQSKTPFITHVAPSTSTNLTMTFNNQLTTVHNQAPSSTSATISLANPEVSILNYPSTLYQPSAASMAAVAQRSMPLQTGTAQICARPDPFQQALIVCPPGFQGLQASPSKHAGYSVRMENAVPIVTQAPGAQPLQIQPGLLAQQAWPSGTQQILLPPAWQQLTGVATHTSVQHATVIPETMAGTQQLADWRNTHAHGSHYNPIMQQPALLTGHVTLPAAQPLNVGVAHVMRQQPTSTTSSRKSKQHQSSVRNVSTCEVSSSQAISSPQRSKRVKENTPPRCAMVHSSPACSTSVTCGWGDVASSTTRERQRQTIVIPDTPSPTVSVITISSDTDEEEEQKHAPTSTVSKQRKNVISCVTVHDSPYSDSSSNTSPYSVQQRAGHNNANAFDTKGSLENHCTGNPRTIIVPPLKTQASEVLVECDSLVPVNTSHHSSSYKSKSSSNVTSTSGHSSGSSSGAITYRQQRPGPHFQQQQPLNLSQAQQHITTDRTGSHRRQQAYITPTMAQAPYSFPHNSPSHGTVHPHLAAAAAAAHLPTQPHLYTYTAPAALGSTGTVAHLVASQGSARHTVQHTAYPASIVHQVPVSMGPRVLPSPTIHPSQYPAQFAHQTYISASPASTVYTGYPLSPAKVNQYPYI
Sequence of Calcium/calmodulin-dependent protein kinase type 1 (Homo sapiens) (Q14012 whole entry, looked up): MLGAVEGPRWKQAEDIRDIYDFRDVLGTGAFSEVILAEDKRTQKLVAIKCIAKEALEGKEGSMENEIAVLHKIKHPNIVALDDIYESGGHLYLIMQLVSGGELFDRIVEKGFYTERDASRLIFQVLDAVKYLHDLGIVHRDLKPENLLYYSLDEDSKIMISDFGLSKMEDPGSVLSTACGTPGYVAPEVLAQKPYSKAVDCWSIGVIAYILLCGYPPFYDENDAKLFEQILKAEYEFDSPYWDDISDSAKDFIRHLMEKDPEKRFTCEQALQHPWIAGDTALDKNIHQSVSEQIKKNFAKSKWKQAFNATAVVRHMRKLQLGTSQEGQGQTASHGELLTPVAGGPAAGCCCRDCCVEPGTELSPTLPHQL

Take `COCCN1CCC(c2cc(CN(C)C(=O)c3cccc(Oc4ccccc4)c3)ccn2)CC1`: the IC50 in assay [1] was > 10 µM. In turn, `CNC(=O)Nc1ccc(-c2nc(N3CC4CCC(C3)O4)c3cnn(C4CCC5(CC4)OCCO5)c3n2)cc1` showed a % of control in assay [2] of 25%.

With `CC[C@@H]1[C@H](F)C(=O)N[C@@H]1COc1nccc2cc(C(N)=O)c(OC)cc12` [ZIMLOVISERTIB], the % of inhibition in [3] is 2.7%; in [4], -5.3%; in assay [5], -26.4%. For the molecule `O[C@H]1CC[C@H](Nc2ncc3nc(Nc4c(F)cc(F)cc4F)n([C@H]4CCOC4)c3n2)CC1`, the % of control in assay [6] came to 86%; in assay [7] it was 50%; in assay [8], 94%.

For `CCC(=O)N1CCN(c2ccc(-n3c(=O)ccc4cnc5ccc(-c6cnc7ccccc7c6)cc5c43)cc2C(F)(F)F)CC1`, the % of control in assay [9] came to 94%.

Broadly, the IC50 is the concentration that gives 50% inhibition. Higher therefore signals a need for much substance.
